From US10266497B2 (ABIDE THERAPEUTICS, INC., priority 2017, dated 2019)

Legend:
MAGL [1] = biological target: T1, MAGL (Homo sapiens, UniProt Q99685); test: In vitro competitive activity-based protein profiling, MAGL, human; conditions: read-out: MAGL % inh. 1 μM (human)
T1 sequence (Q99685 1-303): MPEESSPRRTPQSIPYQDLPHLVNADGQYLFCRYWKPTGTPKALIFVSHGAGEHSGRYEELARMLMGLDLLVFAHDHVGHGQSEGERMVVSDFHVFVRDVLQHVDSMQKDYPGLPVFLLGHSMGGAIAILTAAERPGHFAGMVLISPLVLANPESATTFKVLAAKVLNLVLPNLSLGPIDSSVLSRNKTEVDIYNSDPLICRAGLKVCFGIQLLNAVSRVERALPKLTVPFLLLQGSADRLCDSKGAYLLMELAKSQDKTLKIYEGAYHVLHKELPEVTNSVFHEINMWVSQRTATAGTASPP
Experimental: Biological Evaluation In Vitro Competitive Activity-Based Protein Profiling.
Proteomes (mouse brain membrane fraction for mouse assays; human prefrontal cortex membrane fractions for human assays) (50 mL, 1.0 mg/mL total protein concentration) were preincubated with varying concentrations of inhibitors at 37° C. After 30 min, FP-Rh (1.0 mL, 50 mM in DMSO) was added and the mixture was incubated for another 30 min at 37° C. Reactions were quenched with SDS loading buffer (15 μL—4λ) and run on SDS-PAGE.

MAGL [2] = biological target: T2, MAGL (Mus musculus, UniProt O35678); test: In vitro competitive activity-based protein profiling, MAGL, mouse; conditions: read-out: MAGL % inh. 1 μM (mouse)
T2 sequence (O35678 1-303): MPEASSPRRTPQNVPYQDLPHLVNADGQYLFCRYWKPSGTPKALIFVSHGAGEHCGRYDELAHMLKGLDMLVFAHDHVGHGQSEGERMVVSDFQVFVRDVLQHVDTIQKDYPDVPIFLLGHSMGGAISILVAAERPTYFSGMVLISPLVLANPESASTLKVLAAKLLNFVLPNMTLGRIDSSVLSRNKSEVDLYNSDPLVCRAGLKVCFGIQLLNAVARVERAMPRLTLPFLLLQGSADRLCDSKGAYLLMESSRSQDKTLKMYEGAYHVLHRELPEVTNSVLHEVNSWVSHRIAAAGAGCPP

## O=C(O)c1nn(C(=O)N2CCN(Cc3ccc(N4CCCC4)cc3C(F)(F)F)CC2)cc1Cl [Example 368, 4-chloro-1-(4-(4-(pyrrolidin-1-yl)-2-(trifluoromethyl)benzyl)piperazine-1-carbonyl)-1H-pyrazole-3-carboxylic acid]
MAGL [1]
  inhibition at 1 µM: > 75%
MAGL [2]
  inhibition at 1 µM: > 75%

## C[C@H]1C[C@@H](N(C)Cc2cccc(C(F)(F)F)c2)CCN1C(=O)n1ccc(C(N)=O)n1 [Example 24, 1-((2S,4S)-2-Methyl-4-(methyl(3-(trifluoromethyl)benzyl)amino)piperidine-1-carbonyl)-1H-pyrazole-3-carboxamide]
MAGL [1]
  inhibition at 1 µM: > 75%
MAGL [2]
  inhibition at 1 µM: > 75%

## C[C@H]1CN(Cc2cccc(Oc3cc(C(F)(F)F)ccn3)c2)CCN1C(=O)n1ccc(C(=O)O)n1 [Example 373, (S)-1-(2-methyl-4-(3-((4-(trifluoromethyl)pyridin-2-yl)oxy)benzyl)piper-azine-1-carbonyl)-1H-pyrazole-3-carboxylic acid]
MAGL [1]
  inhibition at 1 µM: > 75%
MAGL [2]
  inhibition at 1 µM: > 75%

## CC(C)c1ccccc1O[C@H]1C[C@@H]2CN(C(=O)n3ccc(C(=O)O)n3)C[C@@H]2C1 [Example 221, 1-(trans-5-(2-isopropylphenoxy)octahydrocyclopenta [c]pyrrole-2-carbonyl)-1H-pyrazole-3-carboxylic acid]
MAGL [1]
  inhibition at 1 µM: > 75%
MAGL [2]
  inhibition at 1 µM: > 75%

## O=C(O)c1nn(C(=O)N2C[C@H]3C[C@H](Oc4cccc(-c5ccccc5)c4)C[C@H]3C2)cc1Cl [Example 304, 1-(trans-5-([1,1′-biphenyl]-3-yloxy)octahydrocyc-lopenta[c]pyrrole-2-carbonyl)-4-chloro-1H-pyrazole-3-carboxylic acid]
MAGL [1]
  inhibition at 1 µM: > 75%
MAGL [2]
  inhibition at 1 µM: > 75%

## O=C(O)c1ccn(C(=O)N2CCN(Cc3cccc(Oc4ncccc4F)c3)CC2)n1 [Example 264, 1-(4-(3-((3-fluoropyridin-2-yl)oxy)benzyl)piper-azine-1-carbonyl)-1H-pyrazole-3-carboxylic acid]
MAGL [1]
  inhibition at 1 µM: > 75%
MAGL [2]
  inhibition at 1 µM: > 75%

## O=C(O)c1ccn(C(=O)N2C[C@H]3C[C@H](Oc4cccc(C(F)(F)F)c4)C[C@H]3C2)n1 [Example 231, 1-(trans-5-(3-(trifluoromethyl)phenoxy)octahydro-cyclopenta[c]pyrrole-2-carbonyl)-1H-pyrazole-3-carboxylic acid]
MAGL [1]
  inhibition at 1 µM: > 75%
MAGL [2]
  inhibition at 1 µM: > 75%

## O=C(O)c1ccn(C(=O)N2CCN(Cc3ccc(C(F)(F)F)cc3N3CC[C@@H](O)C3)CC2)n1 [Example 333, (R)-1-(4-(2-(3-hydroxypyrrolidin-1-yl)-4-(trifluoromethyl)benzyl)piperazine-1-carbonyl)-1H-pyrazole-3-carboxylic acid]
MAGL [1]
  inhibition at 1 µM: > 75%
MAGL [2]
  inhibition at 1 µM: > 75%

## C[C@H]1CN(Cc2cc(Cl)cc(C(F)(F)F)c2)CCN1C(=O)n1ccc(C(N)=O)n1 [Example 271, (S)-1-(4-(3-chloro-5-(trifluoromethyl)benzyl)-2-methylpiperazine-1-carbonyl)-1H-pyrazole-3-carboxamide]
MAGL [1]
  inhibition at 1 µM: > 75%
MAGL [2]
  inhibition at 1 µM: > 75%

## O=C(O)c1nn(C(=O)N2CC3CN(Cc4cc(Cl)cc(C(F)(F)F)c4)CC3C2)cc1Cl (stereo not shown) [Example 357, 4-chloro-1-(5-(3-chloro-5-(trifluoromethyl)benzyl)octahydro-pyrrolo[3,4-c]pyrrole-2-carbonyl)-1H-pyrazole-3-carboxylic acid]
MAGL [1]
  inhibition at 1 µM: > 75%
MAGL [2]
  inhibition at 1 µM: > 75%

## C[C@@H]1CN(Cc2ccc(-c3ccccc3)cc2F)CCN1C(=O)n1ccc(C(=O)O)n1 [Example 253, (R)-1-(4-((3-fluoro-[1,1′-biphenyl]-4-yl)methyl)-2-methylpiperazine-1-carbonyl)-1H-pyrazole-3-carboxylic acid]
MAGL [1]
  inhibition at 1 µM: > 75%
MAGL [2]
  inhibition at 1 µM: > 75%

## O=C(O)c1ccn(C(=O)N2CCC3(CCN(Cc4cc(Cl)ccc4OC(F)(F)F)C3)CC2)n1 [Example 371, 1-(2-(5-chloro-2-(trifluoromethoxy)benzyl)-2,8-diazaspiro[4.5]decane-8-carbonyl)-1H-pyrazole-3-carboxylic acid]
MAGL [1]
  inhibition at 1 µM: > 75%
MAGL [2]
  inhibition at 1 µM: > 75%

## O=C(O)c1ccn(C(=O)N2CCC(OCc3ccc(Cl)c(C(F)(F)F)c3)CC2)n1 [Example 276, 1-(4-((4-chloro-3-(trifluoromethyl)benzyl)oxy)piper-idine-1-carbonyl)-1H-pyrazole-3-carboxylic acid]
MAGL [1]
  inhibition at 1 µM: > 75%
MAGL [2]
  inhibition at 1 µM: > 75%

## O=C(O)c1ccn(C(=O)N2C[C@H]3C[C@H](Oc4ccc(-c5ccccc5)cc4)C[C@H]3C2)n1 [Example 240, 1-(trans-5-([1,1′-biphenyl]-4-yloxy)octahydro-cyclopenta[c]pyrrole-2-carbonyl)-1H-pyrazole-3-carboxylic acid]
MAGL [1]
  inhibition at 1 µM: > 75%
MAGL [2]
  inhibition at 1 µM: > 75%

## COc1ccc(Cl)cc1CN1CCC2(CCN(C(=O)n3ccc(C(=O)O)n3)CC2)C1 [Example 282, 1-(2-(5-chloro-2-methoxybenzyl)-2,8-diazaspiro[4.5]decane-8-carbonyl)-1H-pyrazole-3-carboxylic acid]
MAGL [1]
  inhibition at 1 µM: 50 to 75%
MAGL [2]
  inhibition at 1 µM: 0 to 25%

## O=C(O)c1ccn(C(=O)N2CCN(Cc3ccc(N4CC5COCC5C4)cc3C(F)(F)F)CC2)n1 (stereo not shown) [Example 379, 1-(4-(4-(tetrahydro-1H-furo[3,4-c]pyrrol-5(3H)-yl)-2-(trifluoromethyl)benzyl)piperazine-1-carbonyl)-1H-pyrazole-3-carboxylic acid]
MAGL [1]
  inhibition at 1 µM: > 75%
MAGL [2]
  inhibition at 1 µM: > 75%

## O=C(O)c1ccn(C(=O)N2C[C@H]3C[C@H](OCc4cccc(-c5ccccc5)c4)C[C@H]3C2)n1 [Example 278, 1-(trans-5-([1,1′-biphenyl]-3-ylmethoxy)octa-hydrocyclopenta[c]pyrrole-2-carbonyl)-1H-pyrazole-3-carboxylic acid]
MAGL [1]
  inhibition at 1 µM: > 75%
MAGL [2]
  inhibition at 1 µM: > 75%

## CC(C)(O)COc1cccc(CN2CCN(C(=O)n3ccc(C(=O)O)n3)CC2)c1Cl [Example 213, 1-(4-(2-chloro-3-(2-hydroxy-2-methylpropoxy)benzyl)piperazine-1-carbonyl)-1H-pyrazole-3-carboxylic acid]
MAGL [1]
  inhibition at 1 µM: > 75%
MAGL [2]
  inhibition at 1 µM: > 75%

## C[C@@H]1CN(Cc2ccc(Cl)c(-c3nccs3)c2)CCN1C(=O)n1ccc(C(=O)O)n1 [Example 299, (R)-1-(4-(4-chloro-3-(thiazol-2-yl)benzyl)-2-methylpiperazine-1-carbonyl)-1H-pyrazole-3-carboxylic acid]
MAGL [1]
  inhibition at 1 µM: > 75%
MAGL [2]
  inhibition at 1 µM: > 75%

## C[C@@H]1CN(Cc2cccc(OCC(C)(C)O)c2Cl)CCN1C(=O)n1ccc(C(N)=O)n1 [Example 216, (R)-1-(4-(2-chloro-3-(2-hydroxy-2-methylpropoxy)benzyl)-2-methylpiperazine-1-carbonyl)-1H-pyrazole-3-carboxamide]
MAGL [1]
  inhibition at 1 µM: > 75%
MAGL [2]
  inhibition at 1 µM: > 75%

## C[C@@H]1CN(Cc2ccc(C(F)(F)F)cc2N2CCCC2)CCN1C(=O)n1ccc(C(N)=O)n1 [Example 325, (R)-1-(2-methyl-4-(2-(pyrrolidin-1-yl)-4-(trifluoromethyl)benzyl)piperazine-1-carbonyl)-1H-pyrazole-3-carboxamide]
MAGL [1]
  inhibition at 1 µM: > 75%
MAGL [2]
  inhibition at 1 µM: > 75%

## O=C(O)c1ccn(C(=O)N2CCN(Cc3cccc(Oc4cccc(C(F)(F)F)n4)c3)CC2)n1 [Example 353, 1-(4-(3-((6-(trifluoromethyl)pyridin-2-yl)oxy)benzyl)piper-azine-1-carbonyl)-1H-pyrazole-3-carboxylic acid]
MAGL [1]
  inhibition at 1 µM: > 75%
MAGL [2]
  inhibition at 1 µM: > 75%

## C[C@@H]1CN(Cc2cc(F)cc(Oc3ccccc3Cl)c2)CCN1C(=O)n1ccc(C(=O)O)n1 [Example 350, (R)-1-(4-(3-(2-chlorophenoxy)-5-fluorobenzyl)-2-methylpiperazine-1-carbonyl)-1H-pyrazole-3-carboxylic acid]
MAGL [1]
  inhibition at 1 µM: > 75%
MAGL [2]
  inhibition at 1 µM: > 75%

## O=C(O)c1ccn(C(=O)N2CCC3(CCCN3Cc3ccc(C(F)(F)F)cc3N3CC4CCC(C3)O4)CC2)n1 [Example 416, 1-(1-(2-(8-oxa-3-azabicyclo[3.2.1]octan-3-yl)-4-(trifluoromethyl)benzyl)-1,8-diazaspiro[4.5]decane-8-carbonyl)-1H-pyrazole-3-carboxylic acid]
MAGL [1]
  inhibition at 1 µM: > 75%
MAGL [2]
  inhibition at 1 µM: > 75%

## Cc1cn(C(=O)N2CCN(Cc3cc(F)cc(Oc4ccc(Cl)cc4)c3)CC2)nc1C(=O)O [Example 346, 1-(4-(3-(4-chlorophenoxy)-5-fluorobenzyl)piper-azine-1-carbonyl)-4-methyl-1H-pyrazole-3-carboxylic acid]
MAGL [1]
  inhibition at 1 µM: > 75%
MAGL [2]
  inhibition at 1 µM: > 75%

## O=C(O)c1ccn(C(=O)N2CCC3(CCCN3Cc3ccc(C(F)(F)F)cc3N3CCN4CCC[C@@H]4C3)CC2)n1 [Example 417, (R)-1-(1-(2-(hexahydropyrrolo[1,2-a]pyrazin-2(1H)-yl)-4-(trifluoromethyl)benzyl)-1,8-diazaspiro[4.5]decane-8-carbonyl)-1H-pyrazole-3-carboxylic acid]
MAGL [1]
  inhibition at 1 µM: 25 to 50%
MAGL [2]
  inhibition at 1 µM: 0 to 25%
